Assay results reported in publication PMC3376652 (Journal of Medicinal Chemistry, 2012).
pIC50, pKd: −log10 of the molar value. Like-named read-outs stand apart in the source and are kept apart here. Marks after values point to notes of the source that are not given here.

Experiments:
[1] = test system: amphotropic murine leukemia virus (A-MLV); type: cell-based; conditions: for pIC50: Murine leukemia virus, read-out: A-MLV IC50
[2] = test system: 17b binding to monomeric core and full-length gp120; assay: SPR of 17b binding to small molecule:gp120 complexes; design: species or system HIV-1
[3] = molecular target: T1, gp120 from the YU2 strain (Human immunodeficiency virus type 1 group M subtype B, UniProt P35961); assay: Isothermal titration calorimetry of binding to full-length gp120; design: species or system HIV-1; conditions: for −TΔS: calculated from ΔG = ΔH – TΔS; for change in heat capacity of binding: calculated from the temperature dependence of the binding enthalpies; for surface efficiency index (S.E.I.): calculated from KD and molecular polar surface area; for binding efficiency index (B.E.I.): calculated from KD and molecular weight
[4] = test system: recombinant HIV-1YU2 on Cf2Th-CCR5 cells; assay: Activation of viral infectivity in CD4-negative Cf2Th-CCR5 cells; type: cell-based; conditions: for Activation of Viral Infectivity: Cf2Th-CCR5 cells
[5] = test system: 42 HIV-1 clade B and C isolates; assay: Viral breadth: neutralization of HIV-1 Env-pseudoviruses in TZM-bl cells; type: cell-based; conditions: 42 HIV-1 strains (clades B and C); for neutralization breadth among the viral isolates tested: IC50 < 100 μM
[6] = test system: recombinant HIV-1YU2 on Cf2Th-CCR5 cells; conditions: relative to 1, ref Schon et al.[49] and Madani et al.[44]; cited from earlier work
wild-type HIV-1YU2 virus [7] = conditions: read-out: HIV-1, YU-2 IC50; Cf2Th-CD4/CCR5 cells, 10,000 RT units; ref Schon et al.[49] and Madani et al.[44]; cited from earlier work
[8] = molecular target: T1, gp120 from the YU2 strain; conditions: ITC, 25 °C, ref Schon et al.[49] and Madani et al.[44], cited from earlier work
wild-type HIV-1YU2 virus [9] = type: cell-based; conditions: for pIC50: read-out: HIV-1, YU-2 IC50, Table 2, Cf2Th-CD4/CCR5 cells, mean ± SD
S375Wgp120 YU2 virus = assay: Viral inhibition of the Phe43 cavity filling mutant virus; type: cell-based, HIV-1
Cf2Th-CD4-CCR5 cells = assay: Luminescent cell-based viability assay; design: species or system canine; conditions: 1 to 100 μM, 48 hours
[10] = Table 2, calculated from KD, 25 °C

SMILES | inhibition of entry of A-MLV control virus (specificity, in words) [1] | effect on binding of 17b to gp120 [2] | ΔH ([3]; Table 2, ITC, 25 °C) | ΔG [3, 10] | entry enhancement of YU2 viruses into CD4-negative, CCR5-expressing cells (in words) [4] | Activation of Viral Infectivity ([4]; Table 2, relative to 4) | percent of isolates with IC50 < 10 μM [5] | Activation of Viral Infectivity [6] | ΔG [8] | ΔH [8] | change in heat capacity of binding [3] | also measured
N[C@@H]1Cc2ccccc2[C@H]1NC(=O)C(=O)Nc1ccc(Cl)c(F)c1 [(−)-6] | inhibiting entry of the A-MLV control virus with a similar IC50 value | enhance binding of 17b to both the monomeric core and full-length gp120 | -19.5 kcal/mol | -8.1 kcal/mol | enhanced viral entry in CD4-negative cells at levels comparable to those previously measured for 1–4 | 1.0 ± 0.3 (relative to 4) | – | – | – | – | – | pKd ([3]; KD, Table 2, ITC, 25 °C, PBS pH 7.4, 2% DMSO): 5.92; −TΔS ([3]; Table 2): +11.4 kcal/mol
CC1(C)CC(NC(=O)C(=O)Nc2ccc(Cl)cc2)CC(C)(C)N1 [Compound 1] | – | – | – | – | – | – | 12% | 1.0 | –7.4 kcal/mol | –24.5 kcal/mol | – | pIC50 (wild-type HIV-1YU2 virus [7]): < 4.00; −TΔS ([8]; listed as NBD-556 (1)): +17.1 kcal/mol
O=C(Nc1ccc(Cl)c(F)c1)C(=O)N[C@H]1c2ccccc2C[C@H]1O [(+)-9, N^1-(4-chloro-3-fluorophenyl)-N^2-[(1S,2R)-2-hydroxy-2,3-dihydro-1H-inden-1-yl]oxalamide] | – | – | – | – | – | – | – | – | – | – | – | inhibition of viral entry (in words, data not shown) (wild-type HIV-1YU2 virus [9]): weak inhibition of viral entry
CN1C(C)(C)CC(NC(=O)C(=O)Nc2ccc(Cl)c(F)c2)CC1(C)C [Compound 4] | – | enhance binding of 17b to both the monomeric core and full-length gp120 | – | – | – | – | – | – | – | – | −738 ± 36 cal/(K × mol) | ΔH ([3]; Table 1, ITC, 25 °C): –19.7 kcal/mol; ΔG ([3]; Table 1, calculated from Kd, 25 °C): –8.8 kcal/mol; −TΔS ([3]; Table 1): +10.9 kcal/mol; Activation of Viral Infectivity ([4]; Table 1, relative to 3): 2.1 (relative to 3)^i
CC1(C)CC(NC(=O)C(=O)Nc2ccc(Cl)c(F)c2)CC(C)(C)N1 [Compound 3] | – | – | – | – | – | – | – | 1.9 (relative to 1) | –8.3 kcal/mol | –20.8 kcal/mol | – | −TΔS ([8]; listed as JRC-I-191 (3)): +12.5 kcal/mol
N=C(N)N[C@H]1Cc2ccccc2[C@@H]1NC(=O)C(=O)Nc1ccc(Cl)c(F)c1.O=CO [(+)-12, N^1-(4-chloro-3-fluorophenyl)-N^2-[(1S,2S)-2-guanidino-2,3-dihydro-1H-inden-1-yl]-oxalamide formate] | neither compound was found to inhibit entry of A-MLV | enhance binding of 17b to both the monomeric core and full-length gp120 | -14.9 kcal/mol | -9.0 kcal/mol | no appreciable entry enhancement | 0.1 ± 0.0 (19)^j (relative to 4) | 57% | – | – | – | −398 ± 5 cal/(K × mol) | sensitivity of YU2 S375Wgp120 virus to compound (S375Wgp120 YU2 virus): completely resistant; neutralization breadth among the viral isolates tested [5]: 100%; pIC50 [1]: < 4.00; in vitro cytotoxicity, inhibition of cell growth (Cf2Th-CD4-CCR5 cells): did not demonstrate measurable inhibition of cell growth; pIC50 (wild-type HIV-1YU2 virus [9]): 4.70; surface efficiency index (S.E.I.) [3]: 6.4; binding efficiency index (B.E.I.) [3]: 16.8
N[C@H]1Cc2ccccc2[C@@H]1NC(=O)C(=O)Nc1ccc(Cl)c(F)c1 [(+)-6, N^1-(4-chloro-3-fluorophenyl)-N^2-[(1S,2S)-2-amino-2,3-dihydro-1H-inden-1-yl]-oxalamide] | inhibiting entry of the A-MLV control virus with a similar IC50 value | enhance binding of 17b to both the monomeric core and full-length gp120 | -15.4 kcal/mol | -7.9 kcal/mol | enhanced viral entry in CD4-negative cells at levels comparable to those previously measured for 1–4 | 1.4 ± 0.5 (relative to 4) | – | – | – | – | – | –
N=C(N)N[C@@H]1Cc2ccccc2[C@H]1NC(=O)C(=O)Nc1ccc(Cl)c(F)c1.O=CO [(−)-12] | neither compound was found to inhibit entry of A-MLV | enhance binding of 17b to both the monomeric core and full-length gp120 | -19.4 kcal/mol | -9.0 kcal/mol | no appreciable entry enhancement | 0.0 ± 0.0 (4)^j (relative to 4) | 52% | – | – | – | −817 ± 15 cal/(K × mol) | sensitivity of YU2 S375Wgp120 virus to compound (S375Wgp120 YU2 virus): completely resistant; neutralization breadth among the viral isolates tested [5]: 100%; pIC50 [1]: < 4.00; pIC50 (wild-type HIV-1YU2 virus [9]): 4.70; −TΔS ([3]; Table 2): +10.4 kcal/mol; surface efficiency index (S.E.I.) [3]: 6.4; binding efficiency index (B.E.I.) [3]: 16.8
CC1(C)CC(NC(=O)C(=O)Nc2ccc(Br)cc2)CC(C)(C)N1 [Compound 2] | – | – | – | – | – | – | – | 0.8 (relative to 1) | –7.7 kcal/mol | –22.8 kcal/mol | – | pIC50 (wild-type HIV-1YU2 virus [7]): < 4.00; −TΔS ([8]; listed as NBD-557 (2)): +15.1 kcal/mol
